Reference: PMC5496796 (Clinical cancer research : an official journal of the …, 2017)
Entries after “also recorded” stand apart in the source; their conditions may differ. Where two headings read alike, the source gives them in different places.

How the values were obtained:
[1] = Plasma pharmacokinetics; assay type: in vivo, human
[2] = test system: relapsed or refractory multiple myeloma; test: Treatment response by IMWG criteria, phase 1/2 trial; assay type: in vivo, human; details: single-agent ricolinostat
[3] = test system: patients with relapsed or refractory multiple myeloma
[4] = test system: acetylated histones (a substrate of class I HDACs); test: Acetylated histones in CD3+ peripheral blood lymphocytes; assay type: in vivo, human; details: 1 hour after first dose
[5] = test system: acetylated tubulin (a substrate of HDAC6); details: for change in acetylated tubulin: 1 hour after first dose
[6] = tablet form; ref [25]; cited from earlier work
[7] = initial 160 mg daily oral dose, cohort 4′, n=14, mean ± SD
[8] = single agent ricolinostat, N=15
[9] = single-agent ricolinostat, 15 patients
[10] = single agent ricolinostat 160 mg
[11] = single agent ricolinostat 240 mg

CC(C)C[C@H](NC(=O)[C@H](Cc1ccccc1)NC(=O)c1cnccn1)B(O)O [bortezomib, reference compound]
time of observed Cmax of bortezomib (first plasma sample) ([1]; after i.v. injection, days 1 and 11, with few exceptions): 15 min
Cmax ([1]; human, plasma, mean Cmax of bortezomib, day 1 dose, cohort 4′ ([…]^2 with ricolinostat 160 mg QD), n=14): 24 ± 11 ng/mL
Cmax ([1]; human, plasma, mean Cmax of bortezomib, day 11 dose, cohort 4′ ([…]^2 with ricolinostat 160 mg QD), n=11): 40 ± 15 ng/mL

O=C(CCCCCCNC(=O)c1cnc(N(c2ccccc2)c2ccccc2)nc1)NO [ricolinostat]
drug accumulation upon repeated dosing ([1]; bid dosing): 1.01 ± 0.26
Cmax ([1]; human, plasma, oral, mean Cmax on day 11, bid administration, n=10): 524 ± 150 ng/mL
Cmax ([1]; human, plasma, oral, mean Cmax on day 11, qd dosing, n=11): 648 ± 200 ng/mL
half-life ([1]; human, plasma, po, 160 mg): 3.26 ± 0.46 h
apparent oral clearance [1, 7]: 111 ± 25 L/h
apparent oral total body volume of distribution [1, 7]: 521 ± 166 L
dose dependence of exposure (Cmax) ([1]; oral 40 to 360 mg, alone or with bortezomib): plateau in exposure at dose levels ≥160 mg; also recorded: no significant increase at doses greater than 160 mg
median time of maximum observed concentration in plasma (Cmax) ([1]; oral, initial dose and dose on day 11, range 0.25–2.0 hours): 1.0 h
drug accumulation upon repeated dosing ([1]; qd dosing): 1.10 ± 0.20
duration of stable disease, median ([2]; 6 patients, range 5 – 30): 11 weeks
clinical response (minor or partial response) ([2]; 15 patients): nor clinical responses; also recorded: no patients had a minor or partial response
patients with stable disease ([2]; of the 15 patients): 6
toxicity, overall ([3]; single agent ricolinostat therapy): neither significant toxicity
Amylase elevation, All grades [3, 8]: 0 (0) N (%)
Amylase elevation, Grade 3/4 [3, 8]: 0 (0) N (%)
Anemia, All grades [3, 8]: 3 (20) N (%)
Anemia, Grade 3/4 [3, 8]: 1 (7) N (%)
Blood creatinine elevation, All grades [3, 8]: 5 (33) N (%)
Blood creatinine elevation, Grade 3/4 [3, 8]: 0 (0) N (%)
Bronchitis, All grades [3, 8]: 0 (0) N (%)
Bronchitis, Grade 3/4 [3, 8]: 0 (0) N (%)
Diarrhea, All grades [3, 8]: 3 (20) N (%)
Dyspnea, All grades [3, 8]: 1 (7) N (%)
Dyspnea, Grade 3/4 [3, 8]: 0 (0) N (%)
Fatigue, All grades [3, 8]: 4 (27) N (%)
Febrile neutropenia, All grades [3, 8]: 0 (0) N (%)
Febrile neutropenia, Grade 3/4 [3, 8]: 0 (0) N (%)
Hyperglycemia, All grades [3, 8]: 0 (0) N (%)
Hyperglycemia, Grade 3/4 [3, 8]: 0 (0) N (%)
Hypertension, All grades [3, 8]: 0 (0) N (%)
Hypertension, Grade 3/4 [3, 8]: 0 (0) N (%)
Hypokalemia, All grades [3, 8]: 1 (7) N (%)
Hypokalemia, Grade 3/4 [3, 8]: 0 (0) N (%)
Hyponatremia, All grades [3, 8]: 1 (7) N (%)
Hyponatremia, Grade 3/4 [3, 8]: 0 (0) N (%)
Hypophosphatemia, All grades [3, 8]: 2 (13) N (%)
Hypophosphatemia, Grade 3/4 [3, 8]: 1 (7) N (%)
Influenza, All grades [3, 8]: 0 (0) N (%)
Influenza, Grade 3/4 [3, 8]: 0 (0) N (%)
Nausea, All grades [3, 8]: 2 (13) N (%)
Nausea, Grade 3/4 [3, 8]: 0 (0) N (%)
Neutropenia, All grades [3, 8]: 2 (13) N (%)
Neutropenia, Grade 3/4 [3, 8]: 1 (7) N (%)
Peripheral neuropathy, All grades [3, 8]: 0 (0) N (%)
Peripheral neuropathy, Grade 3/4 [3, 8]: 0 (0) N (%)
Pneumonia, All grades [3, 8]: 0 (0) N (%)
Pneumonia, Grade 3/4 [3, 8]: 0 (0) N (%)
Pulmonary embolism, All grades [3, 8]: 0 (0) N (%)
Pulmonary embolism, Grade 3/4 [3, 8]: 0 (0) N (%)
Thrombocytopenia, All grades [3, 8]: 2 (13) N (%)
Thrombocytopenia, Grade 3/4 [3, 8]: 2 (13) N (%)
Transaminase elevation, All grades [3, 8]: 1 (7) N (%)
Transaminase elevation, Grade 3/4 [3, 8]: 0 (0) N (%)
Vomiting, All grades [3, 8]: 0 (0) N (%)
Vomiting, Grade 3/4 [3, 8]: 0 (0) N (%)
dose limiting toxicities ([3]; single-agent dose escalation, 40-360 mg daily): did not observe any dose limiting toxicities
maximum tolerated dose ([3]; single-agent dose escalation, up to 360 mg qd): did not identify a maximum tolerated dose
QT interval prolongation, serial triplicate electrocardiograms ([3]; single-agent ricolinostat): no evidence of QT interval prolongation
discontinuation because of a treatment emergent adverse event ([3]; single-agent ricolinostat): No patient discontinued
adverse events observed during therapy: anemia [3, 9]: 20%
adverse events observed during therapy: diarrhea [3, 9]: 20%
adverse events observed during therapy: fatigue [3, 9]: 27%
adverse events observed during therapy: renal insufficiency [3, 9]: 33%
change in histone acetylation [4, 10]: unchanged
change in histone acetylation [4, 11]: qualitative increase
acetylated tubulin in peripheral blood lymphocytes, dose dependence ([5]; samples taken during therapy): dose-dependent increases
change in acetylated tubulin [5, 10]: increase
change in acetylated tubulin [5, 11]: upward trend

O=C(CCCCCCNC(=O)c1cnc(N(c2ccccc2)c2ccccc2Cl)nc1)NO [ACY-241]
exposure plateau [6]: does not exhibit the exposure plateau
